# Experimental data published in patent US10752607B2, “Polymorphs of N-[(6-cyano-2-fluoro)-3-methoxyphenyl)methyl]-3-(methoxymethyl)-1-({4-[(2-oxopyridin-1-yl)methyl]phenyl}methyl)pyrazole-4-carboxamide as kallikrein inhibitors” (KALVISTA PHARMACEUTICALS LIMITED, priority 2016, dated 2020).
# Assays:
# [1] = tested on: rats; conditions: systemic administration; cited from earlier work
# [2] = in vivo; cited from earlier work
# [3] = molecular target: T1, Human FXIa (Homo sapiens, UniProt P03951); assay: Determination of the % inhibition for FXIa (fluorogenic substrate Z-Gly-Pro-Arg-AFC); format: biochemical; conditions: 40 μM test compound, 25° C.
# T1 construct: purchased Enzyme Research Laboratories
# Procedure: Determination of the % Inhibition for FXIa
# FXIa inhibitory activity in vitro was determined using standard published methods (see e.g. Johansen et al., Int. J. Tiss. Reac. 1986, 8, 185; Shori et al., Biochem. Pharmacol., 1992, 43, 1209; Stürzebecher et al., Biol. Chem. Hoppe-Seyler, 1992, 373, 1025). Human FXIa (Enzyme Research Laboratories) was incubated at 25° C. with the fluorogenic substrate Z-Gly-Pro-Arg-AFC and 40 μM of the test compound. Residual enzyme activity (initial rate of reaction) was determined by measuring the change in […].
# [4] = Pharmacokinetic study, single oral dose in male Sprague-Dawley rats; format: in vivo; conditions: male Sprague-Dawley rat, 10% DMSO/10% cremophor/80% SWFI, plasma
# Procedure: A pharmacokinetic study of N-[(6-cyano-2-fluoro-3-methoxyphenyl)methyl]-3-(methoxymethyl)-1-({4-[(2-oxopyridin-1-yl)methyl]phenyl}methyl)pyrazole-4-carboxamide was performed to assess the pharmacokinetics following a single oral dose in male Sprague-Dawley rats. Two rats were given a single po dose of 5 mL/kg of a nominal 2 mg/mL (10 mg/kg) composition of test compound in vehicle. Following dosing, blood samples were collected over a period of 24 hours. Sample times were 5, 15 and 30 minutes then 1, 2, 4, 6, 8 and […]. Following collection, blood samples were centrifuged and the plasma fraction analysed for concentration of test compound by LCMS.
# [5] = tested on: LPS-induced disseminated intravascular coagulation; conditions: cited from earlier work
# [6] = contacting blood with the inhibitor; cited from earlier work
# [7] = tested on: intrinsic pathway of coagulation; conditions: in vitro; cited from earlier work
# T1 sequence (P03951 388-625 limits assumed): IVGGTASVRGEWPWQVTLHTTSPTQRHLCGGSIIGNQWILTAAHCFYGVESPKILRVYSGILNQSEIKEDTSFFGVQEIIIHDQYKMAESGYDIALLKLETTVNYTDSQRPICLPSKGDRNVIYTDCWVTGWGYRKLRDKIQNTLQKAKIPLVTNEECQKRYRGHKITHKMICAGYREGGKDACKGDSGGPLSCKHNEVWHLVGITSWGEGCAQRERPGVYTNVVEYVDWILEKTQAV
# T1 sequence (P03951 19-387 partner limits assumed): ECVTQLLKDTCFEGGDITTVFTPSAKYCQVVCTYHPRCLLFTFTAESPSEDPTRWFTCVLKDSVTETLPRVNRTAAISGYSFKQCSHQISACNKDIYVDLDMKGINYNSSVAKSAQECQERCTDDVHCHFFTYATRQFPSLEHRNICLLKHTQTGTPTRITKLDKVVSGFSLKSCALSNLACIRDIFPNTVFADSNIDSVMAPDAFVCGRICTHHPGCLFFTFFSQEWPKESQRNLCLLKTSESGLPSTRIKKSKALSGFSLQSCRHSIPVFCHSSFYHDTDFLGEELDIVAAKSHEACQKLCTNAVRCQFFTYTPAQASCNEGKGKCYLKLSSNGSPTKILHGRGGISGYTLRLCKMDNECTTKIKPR
compound,measurement,setting,value
N=C(N)c1ccc(CNC(=O)c2cnn(Cc3ccccc3)c2)cc1 [ASP-440],hematoma expansion,[1],reduced hematoma expansion
same,oral availability,[2],poor oral availability
COCc1nn(Cc2ccc(Cn3ccccc3=O)cc2)cc1C(=O)NCc1c(C#N)ccc(OC)c1F [N-[(6-cyano-2-fluoro-3-methoxyphenyl)methyl]-3-(methoxymethyl)-1-({4-[(2-oxopyridin-1-yl)methyl]phenyl}methyl)pyrazole-4-carboxamide],inhibition at 40 µM,[3],28%
same,Cmax,[4]; single po dose 5.5 mg/kg,397 ng/mL
same,Tmax,[4]; single po dose 5.5 mg/kg,30 min
same,Cmax,[4]; single po dose 7.8 mg/kg,360 ng/mL
same,Tmax,[4]; single po dose 7.8 mg/kg,60 min
Cl.NCC1CCC(C(=O)N[C@@H](Cc2ccccc2)C(=O)Nc2ccc(CC(=O)O)cc2)CC1 (stereo partly shown) [PKSI-527],"platelet count, fibrinogen level and FDP level",[5],significantly suppressed the decrease in platelet count and fibrinogen level as well as the increase in FDP level
Ecallantide,activated clotting time (ACT),[6],increase in activated clotting time (ACT)
same,contact activated induced coagulation,[7],delay contact activated induced coagulation
